Read-outs that look alike come from different tables or passages of the source.
Legend:
NCI-H460 = experiment: MTS cell viability assay; format: cell-based, human; conditions: Homo sapiens, NCI-H460, 72 h
Summary of the method: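 72 h compound treatment, 0.33% DMSO; […] PMS 7.67 mg/L, 4 h; 1.4% SDS; […]. Cells 100-5000/well, 37° C., 5% CO2. Output GI50, ≥2 replicates.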

A549 = experiment: MTS cell viability assay; format: cell-based; conditions: Homo sapiens, A549 non small cell lung, 72 hours, read-out: MTS NCI A549 GI50
Summary of the method: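 A549 and a second human cancer line seeded in DMEM/10% FBS, allowed 16–24 h to attach, then exposed 72 h at 37 °C, 5% CO2 to serially diluted compound (final DMSO 0.33%). Viability measured by MTS.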

HsEg5 = molecular target: T1, HsEg5 (Homo sapiens, UniProt P52732); experiment: Fluorescence detection of HsEg5 ATPase activity (ADP Quest, automated); format: biochemical
T1 sequence (P52732 18-359 limits assumed): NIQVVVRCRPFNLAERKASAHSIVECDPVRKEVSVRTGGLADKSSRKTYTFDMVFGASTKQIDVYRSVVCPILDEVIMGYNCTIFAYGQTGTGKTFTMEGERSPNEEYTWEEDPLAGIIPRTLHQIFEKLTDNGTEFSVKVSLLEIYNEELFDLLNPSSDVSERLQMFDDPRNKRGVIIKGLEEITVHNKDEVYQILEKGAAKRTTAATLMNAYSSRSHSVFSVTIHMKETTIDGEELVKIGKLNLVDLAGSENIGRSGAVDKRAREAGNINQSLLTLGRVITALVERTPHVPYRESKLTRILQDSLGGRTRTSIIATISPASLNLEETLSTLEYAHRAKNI
Procedure: Purified HsEg5 motor fragment was activated by mixture with preformed MT polymer (Cytoskeleton, Denver, Colo.) at room temperature for 20 minutes. MT activated ATPase activity was measured using ADP Quest (DiscoverX, Fremont, Calif.) in which a coupled-enzyme assay can translate accumulation of ADP into detectable resorufin signal (FIG. 1A). Fluorescence was measured at λEx=535 nm and λEm=590 nm on a Wallac Victor 2 plate reader (Perkin-Elmer Life Sciences, Boston, Mass.). Reagent A and B from ADP Quest kit were aliquoted and frozen in −20° C. before use. A standard curve was determined using the provided ADP reagent in the reaction buffer that consisted of 50 mM Pipes (pH7.0), 5.0 mM MgCl2, 20 μM paclitaxel and […]. The same buffer was used for Km determination with HsEg5 concentration of 10 nM.
For inhibitor screening, 4 μL of compounds were incubated with 10 μL of MT-activated HsEg5 such that the final concentrations for compound range from 100 μM to 5 nM (1 to 3 serial dilutions, final concentration) and final concentration for HsEg5 is 10 nM. The mixture was incubated at room temperature for 10 minutes with mild shaking. The screening assay contained 0.3% DMSO in all reaction wells. We used wells containing only DMSO as negative controls and wells without ATP as background. Addition of 6 μL ATP (final concentration of 20 μM) initiated the ATP hydrolysis reaction. The 20 μL-reaction was allowed to proceed at room temperature for 10 minutes before addition of 10 μL of reagent A and 20 μL of reagent B. After 20-minute development at room temperature, the fluorescence was measured and data analysis was performed using GraphPad Prism version 3.0 (GraphPad Software, San Diego, Calif.)
For the purpose of high-throughput screening, we automated the fluorescence assay using a Sciclone ALH3000 (Caliper Life Sciences, Hopkinton, Mass.) and Multidrop 384 (Thermo Electron Corp, Waltham, Mass.). First, compound dilution plates for screening (at 10 μM or 1 μM) and ICso determination (10 data points from 100 μM to 5 nM) were made in Corning polypropylene V-bottom 96-well plates. In both cases, the 1st and 7th column contained background (No ATP addition) and negative control (DMSO only). For screening compounds at 10 μM or 1 μM, […] of each compound at 50 μM or 5 μM were used in a 20 μL assay reaction. For IC50 determination, the mother compound plate contained 24 μL of tested compound at stock concentration of 30 mM. 6 μL of each test compound in 30 mM was added to each well in the column 2 and followed by 1:3 serial dilutions in DMSO with the Sciclone ALH3000. 234 μL of assay buffer was then added using a Multidrop 384. Then 4 μL of diluted compounds was used in 20 μL-reaction. The final concentration was a 1:300 dilution of the original stock. Second, a reagent source plate was prepared with three rows designated to MT-activated HsEg5, Reagent A and Reagent B respectively. MTs were diluted with assay buffer and polymerized at room temperature for 10 minutes. Just before use, HsEg5 protein was thawed on ice and activated by addition of MT polymers at room temperature for 20 minutes. HsEg5/MT was then added to Row A of the reagent source plate. The final assay concentration was 10 nM HsEg5 and 500 nM MTs. Reagent A and B were stored at −20° C. and thawed at room temperature followed by transferring to rows B & C of the reagent source plate. Third, ATP substrate plate was prepared by transferring 80 μM ATP solution to each well of a V-shape 96-well plate except the wells in the first row where assay buffer was added instead to have no-ATP blanks. The final concentration for ATP in the assay was 20 μM.
The assay was programmed on Sciclone ALH3000 with the following procedures: 1) Addition of 4 μL compounds to the assay plate, followed by addition of 10 μL of MT-activated HsEg5. […]

[1] = read-out: MTS NCI H460 GI50, NCI-H460 non small cell lung, 72 hours

| Compound | GI50 (NCI-H460; [1]) [nM] | GI50 (A549; A549, 72 h) [nM] | IC50 (HsEg5) [nM] | GI50 (NCI-H460; read-out: MTS NCI H460 GI50) [nM] | GI50 (A549) [nM] |
| --- | --- | --- | --- | --- | --- |
| CCC(c1nc2cc(Cl)ccc2c(=O)n1Nc1ccccc1)N(CCCN)C(=O)c1ccc(F)c(F)c1 (stereo not drawn) [Compound 9, N-(3-Aminopropyl)-N-[1-(3-anilino-7-chloro-4-oxo-3,4-dihydroquinazolin-2-yl)propyl]-3,4-difluorobenzamide] | 2390 | 3570 | 1160 |  |  |
| CC(C)C(c1nc2cc(Cl)ccc2c(=O)n1Nc1ccccc1)N(CCCN)C(=O)c1ccc(F)cc1 (stereo not drawn) [Compound 43, N-(3-Aminopropyl)-N-[1-(3-anilino-7-chloro-4-oxo-3,4-dihydroquinazolin-2-yl)-2-methylpropyl]-4-fluorobenzamide] |  |  | 833 | 2810 | 3490 |
| CCC(c1nc2cc(Cl)ccc2c(=O)n1Nc1ccccc1)N(CCCN)C(=O)c1ccc(F)c(Cl)c1 (stereo not drawn) [Compound 13, N-(3-Aminopropyl)-N-[1-(3-anilino-7-chloro-4-oxo-3,4-dihydroquinazolin-2-yl)propyl]-3-chloro-4-fluorobenzamide] |  |  | 749 | 2210 | 3570 |
| CCC(c1nc2cc(Cl)ccc2c(=O)n1Nc1ccccc1)N(CCCN)C(=O)c1c(F)ccc(C)c1F (stereo not drawn) [Compound 17, N-(3-Aminopropyl)-N-[1-(3-anilino-7-chloro-4-oxo-3,4-dihydroquinazolin-2-yl)propyl]-2,6-difluoro-3-methylbenzamide] | 1590 | 2560 | 1600 |  |  |
| CCC(c1nc2cc(Cl)ccc2c(=O)n1Nc1ccccc1)N(CCCN)Cc1ccc(C)cc1 (stereo not drawn) [Compound 67, 2-{1-[(3-Aminopropyl)(4-methyl-benzyl)amino]propyl}-3-anilino-7-chloro-3H-quinazolin-4-one] |  |  | 8300 | 13100 | 15500 |
| CCC(c1nc2cc(Cl)ccc2c(=O)n1Nc1ccccc1)N(CCN)C(=O)c1cccc(Cl)c1F (stereo not drawn) [Compound 64, N-(2-Aminoethyl)-N-[1-(3-anilino-7-chloro-4-oxo-3,4-dihydroquinazolin-2-yl)propyl]-3-chloro-2-fluorobenzamide] |  |  | 1460 | 6810 | 12600 |
| CCC(c1nc2cc(Cl)ccc2c(=O)n1Nc1ccccc1)N(CCCN)C(=O)c1cc(Cl)cc(Cl)c1 (stereo not drawn) [Compound 11, N-(3-Aminopropyl)-N-[1-(3-anilino-7-chloro-4-oxo-3,4-dihydroquinazolin-2-yl)propyl]-3,5-dichlorobenzamide] |  |  | 735 | 2440 | 3010 |
| CCC(c1nc2cc(Cl)ccc2c(=O)n1Nc1ccccc1)N(CCCN)C(=O)c1ccc(F)c(Cl)c1F (stereo not drawn) [Compound 20, N-(3-Aminopropyl)-N-[1-(3-anilino-7-chloro-4-oxo-3,4-dihydroquinazolin-2-yl)propyl]-3-chloro-2,4-difluorobenzamide] |  |  | 844 | 1000 | 1800 |
| CCC(c1nc2cc(Cl)ccc2c(=O)n1Nc1ccccc1)N(CCCN)C(=O)c1ccc2ccccc2n1 (stereo not drawn) [Compound 22, N-(3-Aminopropyl)-N-[1-(3-anilino-7-chloro-4-oxo-3,4-dihydroquinazolin-2-yl)propyl]quinoline-2-carboxamide] |  |  | 1610 | 1170 | 2080 |
| CCC(c1nc2cc(Cl)ccc2c(=O)n1Nc1ccccc1)N(CCCN)C(=O)c1ccc(-n2cccn2)cc1 (stereo not drawn) [Compound 23, N-(3-Aminopropyl)-N-[1-(3-anilino-7-chloro-4-oxo-3,4-dihydroquinazolin-2-yl)propyl]-4-(1H-pyrazol-1-yl)benzamide] | 1120 | 2490 | 1020 |  |  |
| CCC(c1nc2cc(Cl)ccc2c(=O)n1Nc1ccccc1)N(CCCN)C(=O)c1cccc(F)c1F (stereo not drawn) [Compound 7, N-(3-Aminopropyl)-N-[1-(3-anilino-7-chloro-4-oxo-3,4-dihydroquinazolin-2-yl)propyl]-2,3-difluorobenzamide] |  |  | 566 | 1770 | 2570 |
| CCC(c1nc2cc(Cl)ccc2c(=O)n1Nc1ccccc1)N(CCCN)C(=O)c1cccc(Br)c1 (stereo not drawn) [Compound 14, N-(3-Aminopropyl)-N-[1-(3-anilino-7-chloro-4-oxo-3,4-dihydroquinazolin-2-yl)propyl]-3-bromobenzamide] |  |  | 1000 | 3250 | 3440 |
| CCC(c1nc2cc(Cl)ccc2c(=O)n1Nc1ccccc1)N(CCCN)C(=O)c1ccc(F)c(F)c1F (stereo not drawn) [Compound 10, N-(3-Aminopropyl)-N-[1-(3-anilino-7-chloro-4-oxo-3,4-dihydroquinazolin-2-yl)propyl]-2,3,4-trifluorobenzamide] | 1140 | 2360 | 599 |  |  |
| CCC(c1nc2cc(Cl)ccc2c(=O)n1Nc1ccccc1)N(CCCN)C(=O)c1ccc(Cl)cc1 (stereo not drawn) [Compound 4, N-(3-Aminopropyl)-N-[1-(3-anilino-7-chloro-4-oxo-3,4-dihydroquinazolin-2-yl)propyl]-4-chlorobenzamide] |  |  | 720 | 1140 | 2400 |
| CC(C)C(c1nc2cc(Cl)ccc2c(=O)n1Nc1ccccc1)N(CCCN)C(=O)c1cccc(F)c1F (stereo not drawn) [Compound 42, N-(3-Aminopropyl)-N-[1-(3-anilino-7-chloro-4-oxo-3,4-dihydroquinazolin-2-yl)-2-methylpropyl]-2,3-difluorobenzamide] |  |  | 476 | 2080 | 4280 |
| CCC(c1nc2cc(Cl)ccc2c(=O)n1Nc1ccccc1)N(CCCN)C(=O)c1ccc(C)cc1 (stereo not drawn) [Compound 3, N-(3-Aminopropyl)-N-[1-(3-anilino-7-chloro-4-oxo-3,4-dihydroquinazolin-2-yl)propyl]-4-methylbenzamide] | 1190 | 2300 | 702 |  |  |
| CCC(c1nc2cc(Cl)ccc2c(=O)n1Nc1ccccc1)N(CCCN)C(=O)c1ccc(Cl)c(Cl)c1 (stereo not drawn) [Compound 6, N-(3-Aminopropyl)-N-[1-(3-anilino-7-chloro-4-oxo-3,4-dihydroquinazolin-2-yl)propyl]-3,4-dichlorobenzamide] | 1160 | 1870 | 418 |  |  |
| CCC(c1nc2cc(Cl)ccc2c(=O)n1Nc1ccccc1)N(CCCN)C(=O)c1cccc(Cl)c1F (stereo not drawn) [Compound 19, N-(3-Aminopropyl)-N-[1-(3-anilino-7-chloro-4-oxo-3,4-dihydroquinazolin-2-yl)propyl]-3-chloro-2-fluorobenzamide] |  |  | 582 | 894 | 1570 |

Reference: patent publication US20110217300A1, “Quinazolinone Compounds and Methods of Use Thereof” (priority 2007, published 2011)
